US20180354921A1, “SUBSTITUTED OXADIAZOLES FOR COMBATING PHYTOPATHOGENIC FUNGI” (BASF SE, priority 2015, published 2018)

SMILES: O=C(Cc1ccccc1)Nc1ccc(-c2noc(C(F)(F)F)n2)cc1 [Ex-1, 2-phenyl-N-[4-[5-(trifluoromethyl)-1,2,4-oxadiazol-3-yl]phenyl]acetamide]
- melting point: 198 °C
